According to article PMC4207660, “Identification and Characterization of Hundreds of Potent and Selective Inhibitors of Trypanosoma brucei Growth from a Kinase-Targeted Library Screening Campaign” (PLoS Neglected Tropical Diseases, 2014):
Read-outs that look alike come from different tables or passages of the source.

What was measured:
LRRK2 = LRRK2 (Homo sapiens, UniProt Q5S007); experiment: Human kinase selectivity screening: LRRK2; type: biochemical; conditions: read-out: LRRK2 pIC50 values (converted)
Excerpt: (§1) These kinases were chosen for general selectivity screening owing to their broad representation of the human kinome.

P38A = biological target: T1, P38A (Homo sapiens, UniProt Q16539); experiment: biochemical
T1 construct: variant as stated: P38A
Excerpt: as §1

JAK2 = JAK2 (Homo sapiens, UniProt O60674); experiment: Human kinase selectivity screening: JAK2; type: biochemical; conditions: read-out: JAK2 pIC50 values (converted)
Excerpt: as §1

ChromlogD assay = experiment: ChromlogD assay
Protocol: The Chromatographic Hydrophobicity Index (CHI)[22] values were measured using reversed phase HPLC column (Luna C18 (2), Phenomenex, UK) with a fast acetonitrile gradient at starting mobile phase of pH = 7.4. CHI values are derived directly from the gradient retention times by using a calibration line obtained for standard compounds. The CHI value approximates to the volume % organic concentration when the compound elutes. […] The average error of the assay is ±3 CHI unit or ±0.25 ChromlogD.

IKK2 = biological target: T2, IKK2 (Homo sapiens, UniProt O14920); experiment: Human kinase selectivity screening: IKK2; type: biochemical; conditions: read-out: IKK2 pIC50 values (converted)
T2 sequence (O14920 1-756): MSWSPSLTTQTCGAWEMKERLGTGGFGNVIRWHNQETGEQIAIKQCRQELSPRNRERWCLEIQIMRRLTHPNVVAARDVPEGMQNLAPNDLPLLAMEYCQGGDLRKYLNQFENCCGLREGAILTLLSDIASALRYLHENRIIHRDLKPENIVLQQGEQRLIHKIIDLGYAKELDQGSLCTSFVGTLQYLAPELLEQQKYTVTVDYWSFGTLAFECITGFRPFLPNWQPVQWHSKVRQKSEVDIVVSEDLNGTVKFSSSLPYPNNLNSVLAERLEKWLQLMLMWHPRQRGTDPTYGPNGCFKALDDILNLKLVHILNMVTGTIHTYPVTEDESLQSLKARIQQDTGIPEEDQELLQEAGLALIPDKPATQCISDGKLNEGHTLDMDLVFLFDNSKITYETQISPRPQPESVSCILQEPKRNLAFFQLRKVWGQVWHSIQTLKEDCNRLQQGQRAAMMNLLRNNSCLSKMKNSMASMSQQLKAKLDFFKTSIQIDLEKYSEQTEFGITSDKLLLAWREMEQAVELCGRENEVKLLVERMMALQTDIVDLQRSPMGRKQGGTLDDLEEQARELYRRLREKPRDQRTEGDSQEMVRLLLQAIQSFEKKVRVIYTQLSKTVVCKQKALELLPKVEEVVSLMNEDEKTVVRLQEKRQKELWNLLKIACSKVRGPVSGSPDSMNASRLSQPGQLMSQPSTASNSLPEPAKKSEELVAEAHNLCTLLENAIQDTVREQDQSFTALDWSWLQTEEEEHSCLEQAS
Excerpt: as §1

SYK = SYK (Homo sapiens, UniProt P43405); experiment: Human kinase selectivity screening: SYK; type: biochemical; conditions: read-out: SYK pIC50 values (converted)
Excerpt: as §1

JAK3 = biological target: T3, JAK3 (Homo sapiens, UniProt P52333); experiment: Human kinase selectivity screening: JAK3; type: biochemical; conditions: read-out: JAK3 pIC50 values (converted)
T3 sequence (P52333 1-1124): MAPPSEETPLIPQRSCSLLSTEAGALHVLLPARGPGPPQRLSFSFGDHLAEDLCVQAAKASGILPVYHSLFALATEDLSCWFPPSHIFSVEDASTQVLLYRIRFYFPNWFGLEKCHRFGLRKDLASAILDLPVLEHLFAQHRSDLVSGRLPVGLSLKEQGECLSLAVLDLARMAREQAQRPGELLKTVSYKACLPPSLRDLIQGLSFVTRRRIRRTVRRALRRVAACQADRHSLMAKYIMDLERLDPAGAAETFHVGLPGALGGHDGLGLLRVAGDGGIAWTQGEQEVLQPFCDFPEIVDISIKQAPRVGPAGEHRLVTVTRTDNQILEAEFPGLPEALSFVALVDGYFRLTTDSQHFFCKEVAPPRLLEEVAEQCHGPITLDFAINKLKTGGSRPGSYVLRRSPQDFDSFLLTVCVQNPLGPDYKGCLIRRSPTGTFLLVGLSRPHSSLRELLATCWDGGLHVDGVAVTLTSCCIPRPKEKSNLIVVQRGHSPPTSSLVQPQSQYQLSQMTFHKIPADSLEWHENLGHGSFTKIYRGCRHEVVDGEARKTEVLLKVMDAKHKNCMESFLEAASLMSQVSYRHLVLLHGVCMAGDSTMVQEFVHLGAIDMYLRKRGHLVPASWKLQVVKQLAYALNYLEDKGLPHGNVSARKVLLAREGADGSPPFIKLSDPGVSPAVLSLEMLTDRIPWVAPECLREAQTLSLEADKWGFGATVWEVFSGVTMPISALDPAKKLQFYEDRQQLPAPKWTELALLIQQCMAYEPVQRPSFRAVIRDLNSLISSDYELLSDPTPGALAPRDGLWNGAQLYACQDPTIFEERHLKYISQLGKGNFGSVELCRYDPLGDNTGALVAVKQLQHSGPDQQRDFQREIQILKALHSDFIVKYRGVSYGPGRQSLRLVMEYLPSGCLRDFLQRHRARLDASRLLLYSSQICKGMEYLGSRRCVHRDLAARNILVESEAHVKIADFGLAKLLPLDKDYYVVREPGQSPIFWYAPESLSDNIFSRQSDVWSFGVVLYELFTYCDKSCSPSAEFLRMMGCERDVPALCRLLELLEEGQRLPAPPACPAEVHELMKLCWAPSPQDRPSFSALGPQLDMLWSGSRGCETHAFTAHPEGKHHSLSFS
Excerpt: as §1

LCK = LCK (Homo sapiens, UniProt P06239); experiment: Human kinase selectivity screening: LCK; type: biochemical; conditions: read-out: LCK pIC50 values (converted)
Excerpt: as §1

AURB = AURB (Homo sapiens, UniProt Q96GD4); experiment: Human kinase selectivity screening: AURB; type: biochemical; conditions: read-out: AURB pIC50 values (converted)
Excerpt: as §1

ROCK1 = ROCK1 (Homo sapiens, UniProt Q13464); experiment: Human kinase selectivity screening: ROCK1; type: biochemical; conditions: read-out: ROCK1 pIC50 values (converted)
Excerpt: as §1

JNK1 = JNK1 (Homo sapiens, UniProt P45983); experiment: Human kinase selectivity screening: JNK1; type: biochemical; conditions: read-out: JNK1 pIC50 values (converted)
Excerpt: as §1

BTK = BTK (Homo sapiens, UniProt Q06187); experiment: Human kinase selectivity screening: BTK; type: biochemical; conditions: read-out: BTK pIC50 values (converted)
Excerpt: as §1

Cytochrome P450 (CYP450) = Cytochrome P450 (CYP450) (Homo sapiens, UniProt P08684); experiment: Cytochrome P450 inhibition profile; type: in vitro ADME; conditions: Measured
Protocol: The P450 inhibition profile of the inhibitors was determined as previously described.

[1] = CYP3A4, VG substrate, read-out: CYP3A4VG pXC50 (converted)
[2] = CYP3A4, VR substrate, read-out: CYP3A4VR pXC50 (converted)

Cytochrome P450 (CYP450), sequence (P08684 2-503 limits assumed): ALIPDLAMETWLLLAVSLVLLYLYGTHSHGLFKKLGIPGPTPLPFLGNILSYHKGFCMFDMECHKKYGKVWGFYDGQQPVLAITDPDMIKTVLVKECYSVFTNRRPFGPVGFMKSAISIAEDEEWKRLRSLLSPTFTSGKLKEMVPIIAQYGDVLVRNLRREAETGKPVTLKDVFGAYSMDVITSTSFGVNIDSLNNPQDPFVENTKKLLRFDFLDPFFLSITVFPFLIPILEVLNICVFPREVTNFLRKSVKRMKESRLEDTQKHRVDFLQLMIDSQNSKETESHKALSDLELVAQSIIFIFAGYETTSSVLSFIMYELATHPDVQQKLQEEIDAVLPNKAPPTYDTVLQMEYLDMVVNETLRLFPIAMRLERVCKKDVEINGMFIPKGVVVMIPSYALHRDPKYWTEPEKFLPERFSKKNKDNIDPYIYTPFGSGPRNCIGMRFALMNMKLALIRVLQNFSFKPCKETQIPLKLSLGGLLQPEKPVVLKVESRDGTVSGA
JNK1, sequence (P45983 whole entry): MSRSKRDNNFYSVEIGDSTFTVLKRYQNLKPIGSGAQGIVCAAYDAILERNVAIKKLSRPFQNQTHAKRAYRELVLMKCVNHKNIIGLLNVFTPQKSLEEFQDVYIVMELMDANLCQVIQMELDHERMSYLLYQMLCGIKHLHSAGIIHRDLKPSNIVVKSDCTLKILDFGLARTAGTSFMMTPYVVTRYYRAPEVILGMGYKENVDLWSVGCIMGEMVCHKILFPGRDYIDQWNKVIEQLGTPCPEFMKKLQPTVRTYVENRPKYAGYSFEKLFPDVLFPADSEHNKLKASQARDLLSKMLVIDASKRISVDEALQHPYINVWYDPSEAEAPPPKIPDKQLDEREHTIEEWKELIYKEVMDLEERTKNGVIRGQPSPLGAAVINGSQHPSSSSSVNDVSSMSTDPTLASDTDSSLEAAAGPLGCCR
ROCK1, sequence (Q13464 whole entry): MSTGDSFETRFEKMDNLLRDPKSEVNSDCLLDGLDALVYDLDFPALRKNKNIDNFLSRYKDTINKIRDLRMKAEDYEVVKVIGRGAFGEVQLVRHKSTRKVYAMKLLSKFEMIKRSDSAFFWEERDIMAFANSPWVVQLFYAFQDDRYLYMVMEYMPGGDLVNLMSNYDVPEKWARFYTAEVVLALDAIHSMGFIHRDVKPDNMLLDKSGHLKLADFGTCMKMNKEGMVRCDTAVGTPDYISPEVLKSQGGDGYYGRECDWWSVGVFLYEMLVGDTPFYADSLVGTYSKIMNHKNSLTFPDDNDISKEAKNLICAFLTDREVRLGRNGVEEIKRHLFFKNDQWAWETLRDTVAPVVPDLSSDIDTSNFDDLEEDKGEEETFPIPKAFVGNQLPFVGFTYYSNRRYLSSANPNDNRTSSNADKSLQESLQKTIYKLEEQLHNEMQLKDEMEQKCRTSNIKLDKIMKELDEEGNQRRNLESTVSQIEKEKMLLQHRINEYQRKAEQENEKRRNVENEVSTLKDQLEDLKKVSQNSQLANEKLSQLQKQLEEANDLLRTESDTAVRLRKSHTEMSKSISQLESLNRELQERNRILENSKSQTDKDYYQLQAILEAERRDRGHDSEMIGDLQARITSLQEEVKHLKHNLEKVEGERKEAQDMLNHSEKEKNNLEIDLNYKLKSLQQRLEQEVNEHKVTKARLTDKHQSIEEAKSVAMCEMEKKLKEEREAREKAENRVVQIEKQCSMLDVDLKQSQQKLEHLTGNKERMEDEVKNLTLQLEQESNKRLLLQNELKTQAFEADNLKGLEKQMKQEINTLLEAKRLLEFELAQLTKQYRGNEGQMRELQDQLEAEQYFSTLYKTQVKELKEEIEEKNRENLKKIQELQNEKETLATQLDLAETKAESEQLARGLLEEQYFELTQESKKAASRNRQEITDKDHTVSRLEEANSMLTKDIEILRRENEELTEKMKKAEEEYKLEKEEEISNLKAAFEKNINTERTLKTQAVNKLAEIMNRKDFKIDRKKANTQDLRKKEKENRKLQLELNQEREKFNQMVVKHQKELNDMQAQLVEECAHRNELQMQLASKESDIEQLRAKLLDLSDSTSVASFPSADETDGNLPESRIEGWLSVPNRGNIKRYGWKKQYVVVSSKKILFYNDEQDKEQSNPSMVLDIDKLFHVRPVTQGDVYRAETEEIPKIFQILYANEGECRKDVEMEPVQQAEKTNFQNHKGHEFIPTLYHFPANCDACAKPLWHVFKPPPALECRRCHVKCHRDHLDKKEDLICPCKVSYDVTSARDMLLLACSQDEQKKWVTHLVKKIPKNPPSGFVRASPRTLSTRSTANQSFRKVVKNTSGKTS
LCK, sequence (P06239 whole entry): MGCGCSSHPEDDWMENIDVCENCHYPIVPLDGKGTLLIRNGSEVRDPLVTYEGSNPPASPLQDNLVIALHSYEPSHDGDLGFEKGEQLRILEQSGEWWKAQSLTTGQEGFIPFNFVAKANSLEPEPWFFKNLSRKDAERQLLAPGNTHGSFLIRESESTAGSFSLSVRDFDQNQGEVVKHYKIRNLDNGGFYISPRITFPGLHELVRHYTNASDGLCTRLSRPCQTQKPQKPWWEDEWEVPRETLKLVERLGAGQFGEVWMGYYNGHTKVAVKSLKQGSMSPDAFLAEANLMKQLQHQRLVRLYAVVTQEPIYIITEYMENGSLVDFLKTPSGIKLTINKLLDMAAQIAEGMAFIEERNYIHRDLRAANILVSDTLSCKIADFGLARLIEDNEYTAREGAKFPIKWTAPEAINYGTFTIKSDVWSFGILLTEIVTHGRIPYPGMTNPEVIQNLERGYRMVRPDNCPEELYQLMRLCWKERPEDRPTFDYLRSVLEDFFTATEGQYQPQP
AURB, sequence (Q96GD4 whole entry): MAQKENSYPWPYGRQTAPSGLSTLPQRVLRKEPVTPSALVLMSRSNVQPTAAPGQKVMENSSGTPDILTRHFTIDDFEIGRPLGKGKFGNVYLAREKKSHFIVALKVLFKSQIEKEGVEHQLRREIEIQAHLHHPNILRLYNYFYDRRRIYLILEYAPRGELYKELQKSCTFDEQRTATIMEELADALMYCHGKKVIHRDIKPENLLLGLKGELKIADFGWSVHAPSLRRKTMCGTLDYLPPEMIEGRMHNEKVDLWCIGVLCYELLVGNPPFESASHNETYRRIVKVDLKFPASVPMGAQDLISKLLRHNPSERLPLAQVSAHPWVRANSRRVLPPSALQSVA
JAK2, sequence (O60674 whole entry): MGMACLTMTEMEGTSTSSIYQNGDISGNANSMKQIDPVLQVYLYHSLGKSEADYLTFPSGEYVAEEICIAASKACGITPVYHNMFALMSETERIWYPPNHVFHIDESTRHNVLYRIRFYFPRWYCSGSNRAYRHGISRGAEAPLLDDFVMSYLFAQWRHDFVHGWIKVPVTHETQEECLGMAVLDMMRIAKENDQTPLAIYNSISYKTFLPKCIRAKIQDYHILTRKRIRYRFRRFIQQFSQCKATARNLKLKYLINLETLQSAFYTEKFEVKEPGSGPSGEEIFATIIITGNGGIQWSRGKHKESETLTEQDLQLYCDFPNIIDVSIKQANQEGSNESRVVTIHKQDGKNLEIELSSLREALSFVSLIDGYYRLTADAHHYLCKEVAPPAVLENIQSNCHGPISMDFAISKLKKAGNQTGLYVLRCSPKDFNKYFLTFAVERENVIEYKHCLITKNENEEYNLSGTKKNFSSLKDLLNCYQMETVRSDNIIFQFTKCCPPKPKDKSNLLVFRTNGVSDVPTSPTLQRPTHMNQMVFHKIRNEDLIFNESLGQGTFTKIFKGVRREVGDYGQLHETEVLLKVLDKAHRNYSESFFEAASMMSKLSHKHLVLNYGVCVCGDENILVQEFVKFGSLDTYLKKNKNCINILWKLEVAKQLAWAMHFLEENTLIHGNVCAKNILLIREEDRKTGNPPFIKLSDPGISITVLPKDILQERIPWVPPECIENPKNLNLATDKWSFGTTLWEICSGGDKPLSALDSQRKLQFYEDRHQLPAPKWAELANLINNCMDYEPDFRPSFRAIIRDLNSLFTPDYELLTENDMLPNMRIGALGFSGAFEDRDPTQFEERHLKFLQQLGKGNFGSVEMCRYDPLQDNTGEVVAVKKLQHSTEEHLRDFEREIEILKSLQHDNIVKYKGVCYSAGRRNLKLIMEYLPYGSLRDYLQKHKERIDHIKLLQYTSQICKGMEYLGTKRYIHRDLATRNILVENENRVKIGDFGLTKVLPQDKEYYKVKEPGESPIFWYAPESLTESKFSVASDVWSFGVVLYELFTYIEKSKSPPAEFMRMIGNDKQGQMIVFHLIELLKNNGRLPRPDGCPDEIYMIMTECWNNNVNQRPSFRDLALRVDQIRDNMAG
T1 sequence (Q16539 2-360): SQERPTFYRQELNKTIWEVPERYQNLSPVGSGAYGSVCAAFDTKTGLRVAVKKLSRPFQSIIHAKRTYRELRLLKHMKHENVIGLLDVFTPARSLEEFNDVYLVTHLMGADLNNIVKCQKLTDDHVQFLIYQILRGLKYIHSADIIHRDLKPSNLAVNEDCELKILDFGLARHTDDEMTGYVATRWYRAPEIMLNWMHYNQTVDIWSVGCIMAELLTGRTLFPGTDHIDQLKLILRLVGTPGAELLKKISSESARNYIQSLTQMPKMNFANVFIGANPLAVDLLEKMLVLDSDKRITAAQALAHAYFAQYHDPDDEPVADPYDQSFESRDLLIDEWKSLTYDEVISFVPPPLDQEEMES

SMILES | IC50 (LRRK2) [nM] | IC50 (P38A) [nM] | IC50 (JAK2) [nM] | PFI (ChromlogD assay) | IC50 (IKK2) [nM] | IC50 (SYK) [nM] | IC50 (JAK3) [nM] | IC50 (LCK) [nM] | IC50 (AURB) [nM] | IC50 (ROCK1) [nM] | IC50 (JNK1) [nM] | IC50 (BTK) [nM] | IC50 (Cytochrome P450 (CYP450); [1]) [nM] | IC50 (Cytochrome P450 (CYP450); [2]) [nM]
Cc1cc(Nc2cc(C3CC3)[nH]n2)nc(N2CCCCC2)n1 [NEU-0001127] | 3980 | > 25100 | 398 | 6.13 | > 25100 | 1000 | 631 | 1000 | 158 | 20000 | 1000 | 5010 | 10000 | > 50100
O=S1(=O)Cc2ccc(Nc3nccc(-c4ccc(F)cc4)n3)cc2C1 [NEU-0001142] | 39.8 | 25100 | 50.1 | 7.11 | 501 | 501 | 631 | 2510 | 63.1 | > 25100 | 200 | 20000 | 2510 | 10000
CCCNc1nc(Nc2cnn(C)c2)c2c(=O)[nH]ccc2n1 [NEU-0001187] | 15.8 | > 25100 | 3.98 | 5.43 | 3980 | 63.1 | 2.51 | 200 | 7.94 | 1260 | 501 | 200 | 3980 | > 50100
CCCCc1nc(Nc2cccc(C)c2)c2c(=O)[nH]ccc2n1 [NEU-0001191] | 63.1 | > 25100 | 251 | 8.54 | > 25100 | 2510 | 200 | > 25100 | 158 | > 25100 | 2000 | > 25100 | 79.4 | 6310
CN(C)Cc1ccc(-c2[nH]c3ncc(C#N)cc3c2-c2ccccc2)cc1 [NEU-0001206] | 126 | > 25100 | 501 | 7.88 | > 25100 | 251 | 501 | 50.1 | 39.8 | 12600 | > 25100 | 316 | – | > 50100
Cn1cc(-c2cnc3[nH]cc(-c4cccc(C#N)c4)c3c2)cn1 [NEU-0001207] | 79.4 | > 25100 | 794 | 7.84 | 2000 | 3160 | 631 | 2510 | 1260 | 794 | 501 | > 25100 | 1260 | 20000
O=C(Nc1ccc(-c2ccnc3[nH]ccc23)s1)C1(Cc2ccccc2)CCCNC1 (stereo not shown) [NEU-0001240] | 316 | > 25100 | 501 | 7.26 | 501 | 20000 | 501 | 1580 | 0.501 | 6.31 | > 25100 | 794 | 1260 | 1580
